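A five-concentration, 48-hour dose response in 96-well plates underlies each endpoint, interpolated linearly between surrounding concentrations. GI50: concentration for 50% inhibition of growth. TGI: concentration producing complete growth inhibition.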
Legend:
Assay in all cases: NCI anticancer screen, dose series, 48 h
SW-620 colon = test system: SW-620 colon
RXF 393 renal = test system: RXF 393 renal
U251 CNS = test system: U251 CNS
NCI-H522 lung = test system: NCI-H522 lung
HCT-15 colon = test system: HCT-15 colon
COLO 205 colon = test system: COLO 205 colon
UO-31 renal = test system: UO-31 renal
NCI-H23 lung = test system: NCI-H23 lung
BT-549 breast = test system: BT-549 breast
K-562 leukemia = test system: K-562 leukemia
SNB-19 CNS = test system: SNB-19 CNS
KM12 colon = test system: KM12 colon
UACC-257 melanoma = test system: UACC-257 melanoma
ACHN renal = test system: ACHN renal
T-47D breast = test system: T-47D breast
OVCAR-5 ovarian = test system: OVCAR-5 ovarian
NCI-H460 lung = test system: NCI-H460 lung
NCI/ADR-RES ovarian = test system: NCI/ADR-RES ovarian
A549 NSCLC = test system: A549 NSCLC
EKVX NSCLC = test system: EKVX NSCLC
SR leukemia = test system: SR leukemia
A498 renal = test system: A498 renal
NCI-H226 lung = test system: NCI-H226 lung
SK-MEL-5 melanoma = test system: SK-MEL-5 melanoma
MOLT-4 leukemia = test system: MOLT-4 leukemia
OVCAR-4 ovarian = test system: OVCAR-4 ovarian
CCRF-CEM leukemia = test system: CCRF-CEM leukemia
786-0 renal = test system: 786-0 renal
RPMI-8226 leukemia = test system: RPMI-8226 leukemia
LOX IMVI melanoma = test system: LOX IMVI melanoma
SF-268 CNS = test system: SF-268 CNS
MDA-MB-468 breast = test system: MDA-MB-468 breast
CAKI-1 renal = test system: CAKI-1 renal
HS 578T breast = test system: HS 578T breast
MDA-MB-435 = test system: MDA-MB-435
HOP-92 NSCLC = test system: HOP-92 NSCLC
SF-539 CNS = test system: SF-539 CNS
MDA-MB-231 breast = test system: MDA-MB-231 breast
IGROV1 ovarian = test system: IGROV1 ovarian
OVCAR-8 ovarian = test system: OVCAR-8 ovarian
SN12C renal = test system: SN12C renal
SF-295 CNS = test system: SF-295 CNS
PC-3 prostate = test system: PC-3 prostate
SK-OV-3 ovarian = test system: SK-OV-3 ovarian
MALME-3M melanoma = test system: MALME-3M melanoma
HT29 colon = test system: HT29 colon
HL-60(TB) leukemia = test system: HL-60(TB) leukemia
M14 melanoma = test system: M14 melanoma
HCT-116 colon = test system: HCT-116 colon
TK-10 renal = test system: TK-10 renal
MCF7 breast = test system: MCF7 breast
SNB-75 CNS = test system: SNB-75 CNS
HOP-62 NSCLC = test system: HOP-62 NSCLC
UACC-62 melanoma = test system: UACC-62 melanoma
SK-MEL-28 melanoma = test system: SK-MEL-28 melanoma
DU-145 prostate = test system: DU-145 prostate
OVCAR-3 ovarian = test system: OVCAR-3 ovarian
HCC-2998 colon = test system: HCC-2998 colon
SK-MEL-2 melanoma = test system: SK-MEL-2 melanoma

COc1ccc(S(=O)(=O)Nc2ccc(-c3ccc4c(c3)NC(=O)/C4=C\c3ccc[nH]3)cc2)cc1OC
GI50 (SW-620 colon): 8.53 µM | TGI (SW-620 colon): 71.7 µM | GI50 (RXF 393 renal): 1.4 µM | TGI (RXF 393 renal): 6.74 µM | GI50 (U251 CNS): 10.1 µM | TGI (U251 CNS): 23.2 µM | GI50 (NCI-H522 lung): 3.25 µM | TGI (NCI-H522 lung): 23 µM | GI50 (HCT-15 colon): 13.7 µM | TGI (HCT-15 colon): > 100 µM | GI50 (COLO 205 colon): 10.2 µM | TGI (COLO 205 colon): 83.3 µM | GI50 (UO-31 renal): 12.9 µM | TGI (UO-31 renal): 27.4 µM | GI50 (NCI-H23 lung): 0.194 µM | TGI (NCI-H23 lung): 14.7 µM | GI50 (BT-549 breast): 2.23 µM | TGI (BT-549 breast): 9.35 µM | GI50 (K-562 leukemia): 11.9 µM | TGI (K-562 leukemia): > 100 µM | GI50 (SNB-19 CNS): 12.6 µM | TGI (SNB-19 CNS): 26.3 µM | GI50 (KM12 colon): 9.03 µM | TGI (KM12 colon): > 100 µM | GI50 (UACC-257 melanoma): 0.691 µM | TGI (UACC-257 melanoma): 12.1 µM | GI50 (ACHN renal): 6.99 µM | TGI (ACHN renal): 20.2 µM | GI50 (T-47D breast): 0.0285 µM | TGI (T-47D breast): 1.27 µM | GI50 (OVCAR-5 ovarian): 10.6 µM | TGI (OVCAR-5 ovarian): 23.8 µM | GI50 (NCI-H460 lung): 0.343 µM | TGI (NCI-H460 lung): 11.3 µM | GI50 (NCI/ADR-RES ovarian): 14 µM | TGI (NCI/ADR-RES ovarian): > 100 µM | GI50 (A549 NSCLC): 2.18 µM | TGI (A549 NSCLC): 14.2 µM | GI50 (EKVX NSCLC): 0.0835 µM | TGI (EKVX NSCLC): 17.5 µM | GI50 (SR leukemia): 0.86 µM | TGI (SR leukemia): > 100 µM | GI50 (A498 renal): 14.3 µM | TGI (A498 renal): 28.5 µM | GI50 (NCI-H226 lung): 1.82 µM | TGI (NCI-H226 lung): 12.8 µM | GI50 (SK-MEL-5 melanoma): 3.35 µM | TGI (SK-MEL-5 melanoma): 22.1 µM | GI50 (MOLT-4 leukemia): 14.8 µM | TGI (MOLT-4 leukemia): > 100 µM | GI50 (OVCAR-4 ovarian): 1.76 µM | TGI (OVCAR-4 ovarian): 11.8 µM | GI50 (CCRF-CEM leukemia): 16.1 µM | TGI (CCRF-CEM leukemia): > 100 µM | GI50 (786-0 renal): 3.43 µM | TGI (786-0 renal): 15.2 µM | GI50 (RPMI-8226 leukemia): 8.33 µM | TGI (RPMI-8226 leukemia): > 100 µM | GI50 (LOX IMVI melanoma): 6.39 µM | TGI (LOX IMVI melanoma): 27.6 µM | GI50 (SF-268 CNS): 15.3 µM | TGI (SF-268 CNS): 55.2 µM | GI50 (MDA-MB-468 breast): 0.0309 µM | TGI (MDA-MB-468 breast): 0.113 µM | GI50 (CAKI-1 renal): 6.18 µM | TGI (CAKI-1 renal): 19.9 µM | GI50 (HS 578T breast): 4.6 µM | TGI (HS 578T breast): 61.8 µM | GI50 (MDA-MB-435): 6.35 µM | TGI (MDA-MB-435): 38.9 µM | GI50 (HOP-92 NSCLC): 3.43 µM | TGI (HOP-92 NSCLC): 18.3 µM | GI50 (SF-539 CNS): 1.66 µM | TGI (SF-539 CNS): 11 µM | GI50 (MDA-MB-231 breast): 3.82 µM | TGI (MDA-MB-231 breast): 15.3 µM | GI50 (IGROV1 ovarian): 12.9 µM | TGI (IGROV1 ovarian): 33 µM | GI50 (OVCAR-8 ovarian): 11.2 µM | TGI (OVCAR-8 ovarian): 28.9 µM | GI50 (SN12C renal): 12.4 µM | TGI (SN12C renal): 30.8 µM | GI50 (SF-295 CNS): 3.12 µM | TGI (SF-295 CNS): 15.1 µM | GI50 (PC-3 prostate): 10.1 µM | TGI (PC-3 prostate): 41.3 µM | GI50 (SK-OV-3 ovarian): 3.59 µM | TGI (SK-OV-3 ovarian): 15.1 µM | GI50 (MALME-3M melanoma): 4.26 µM | TGI (MALME-3M melanoma): 15.9 µM | GI50 (HT29 colon): 7.61 µM | TGI (HT29 colon): > 100 µM | GI50 (HL-60(TB) leukemia): 8.35 µM | TGI (HL-60(TB) leukemia): > 100 µM | GI50 (M14 melanoma): 2.4 µM | TGI (M14 melanoma): 17.4 µM | GI50 (HCT-116 colon): 4.72 µM | TGI (HCT-116 colon): 88.5 µM | GI50 (TK-10 renal): 3.3 µM | TGI (TK-10 renal): 18.7 µM | GI50 (MCF7 breast): 0.0476 µM | TGI (MCF7 breast): 11.1 µM | GI50 (SNB-75 CNS): 1.37 µM | TGI (SNB-75 CNS): 21.2 µM | GI50 (HOP-62 NSCLC): 10.2 µM | TGI (HOP-62 NSCLC): 23.3 µM | GI50 (UACC-62 melanoma): 0.75 µM | TGI (UACC-62 melanoma): 8.59 µM | GI50 (SK-MEL-28 melanoma): 0.886 µM | TGI (SK-MEL-28 melanoma): 7.07 µM | GI50 (DU-145 prostate): 4.88 µM | TGI (DU-145 prostate): 20.8 µM | GI50 (OVCAR-3 ovarian): 8.4 µM | TGI (OVCAR-3 ovarian): 27.5 µM | GI50 (HCC-2998 colon): 5.74 µM | TGI (HCC-2998 colon): > 100 µM | GI50 (SK-MEL-2 melanoma): 14.3 µM | TGI (SK-MEL-2 melanoma): 33.8 µM
